Source: patent US20090311237A1, “Combination therapy using a soluble hyaluronidase and a bisphosphonate” (priority 2008, published 2009)
Read-outs that look alike come from different tables or passages of the source.

Assay: Pharmacokinetics of ZA in pig serum after IV or SC infusion with or without rHuPH20 (LC-MS-MS, non-compartmental analysis)
Assay type: in vivo
Method: A pharmacokinetic study of zoledronic acid (ZA) co-administered with rHuPH20 in female Yorkshire swines was conducted. The primary objective of the study was to determine the bioavailability of zoledronic acid dosed via subcutaneous (SC) co-administration with human recombinant hyaluronidase PH20 (rHuPH20) and to compare the overall exposure to an equivalent IV dose.
Animals in Study Group 1 were dosed with 0.15 mg/kg ZA given via a 20-minute IV infusion. Animals in Study Groups 2 and 3 were dosed subcutaneously (SC) with 0.15 mg/kg ZA without and with rHuPH20, respectively, in different SC delivery volumes.
Following ZA dose administration, serial blood samples were collected via vascular access ports (VAPs) for serum preparation and determination of ZA concentrations. Blood collection times were at 1, 3, 5, 10, 15, 20, 30, 45, and 60 minutes, and at 1.5, 2, 3, 4, 6, 8, 10, 24, 48, and 72 hours post dose. Urine samples were also collected to compare excretion characteristics between IV and SC routes of administration. Collection times for urine were at 15 minutes before dosing (−15 min.), continuously from dose initiation to 2 hours post dose, and at 4, 6, 8, and 24 hours post dose thereafter.
Serum concentration of ZA was determined using a qualified LC-MS-MS assay after derivatization with diazomethane (Zhu, L S et al. (2006) Rapid Commun. Mass Spectrom. 20: 3421-3426; “Qualification Data of An LC-MS/MS Method for the Determination of Zoledronate in Porcine Serum”, MDS Pharma Services Study No. AA43671-01, Report Date 14 Sep. 2007). The assay range was from 2.0 to 400 ng/mL with a lower limit of quantitation (LLOQ) at 2.0 ng/mL. Urine concentration of ZA was determined by a similar well qualified LC-MS-MS method (“Qualification Data of An LC-MS/MS Method for the Determination of Zoledronate in Porcine Urine”, MDS Pharma Services Study No. AA43671-02, Report Date 14 Sep. 2007) with an assay LLOQ at 10 ng/mL.
Pharmacokinetic (PK) analyses of ZA serum concentration versus time data were conducted using WinNonlin v5.1 (Pharsight, Mountain View, Calif.). Non-compartmental analysis was used for derivation of primary and secondary pharmacokinetic (PK) parameters. AUC, Cmax, and Tmax were compared between dose routes, between co-administration with rHuPH20, and with dose of rHuPH20.

[1] = female, Yorkshire, pig, serum, subcutaneous, […], pig 66, Study Group 3, SC, ZA […], rHuPH20 10000 U/mL, 100 mL over 16 min, read-out: Zoledronic Acid Serum Concentration
[2] = female, Yorkshire, pig, serum, subcutaneous, […], pig 68, Study Group 3, SC, ZA […], rHuPH20 10000 U/mL, 10 mL over 1.6 min, read-out: Zoledronic Acid Serum Concentration
[3] = female, Yorkshire, pig, serum, subcutaneous, pig 56, Study Group 3, SC, ZA […], rHuPH20 10000 U/mL, 25 mL over 4 min, read-out: Zoledronic Acid Serum Concentration
[4] = female, Yorkshire, pig, serum, subcutaneous, pig 58, Study Group 3, SC, ZA […], rHuPH20 10000 U/mL, 50 mL over 8 min, read-out: Zoledronic Acid Serum Concentration
[5] = female, Yorkshire, pig, serum, subcutaneous, pig 68, Study Group 3, SC, ZA […], rHuPH20 10000 U/mL, 10 mL over 1.6 min, read-out: Zoledronic Acid Serum Concentration

Compound: O=P(O)(O)C(O)(Cn1ccnc1)P(=O)(O)O [ZA, 1-hydroxy-2-(1H-imidazol-1-yl)ethylidene-1,1-bisphosphonic acid]
- concentration at 4 h (female, Yorkshire, pig, serum, subcutaneous, […], pig 64, Study Group 3, SC, ZA […], rHuPH20 10000 U/mL, 100 mL over 16 min, read-out: Zoledronic Acid Serum Concentration): 19 ng/mL
- concentration at 6 h (female, Yorkshire, pig, serum, subcutaneous, […], pig 64, Study Group 3, SC, ZA […], rHuPH20 10000 U/mL, 100 mL over 16 min, time 6 h, read-out: Zoledronic Acid Serum Concentration): 5.75 ng/mL
- concentration at 0.05 h [1]: 12 ng/mL
- concentration at 0.333 h [1]: 103 ng/mL
- concentration at 0.5 h [1]: 78.2 ng/mL
- concentration at 1 h [1]: 53.3 ng/mL
- concentration at 2 h [1]: 23.2 ng/mL
- concentration at 3 h [1]: 11.4 ng/mL
- concentration at 4 h [1]: 6.39 ng/mL
- concentration at 0.05 h [2]: 342 ng/mL
- concentration at 0.333 h [2]: 201 ng/mL
- concentration at 0.5 h [2]: 175 ng/mL
- concentration at 0.05 h [3]: 101 ng/mL
- concentration at 0.333 h [3]: 235 ng/mL
- concentration at 0.5 h [3]: 194 ng/mL
- concentration at 1 h [3]: 128 ng/mL
- concentration at 2 h [3]: 59.7 ng/mL
- concentration at 3 h [3]: 31.2 ng/mL
- concentration at 4 h [3]: 17.6 ng/mL
- concentration at 5 h (female, Yorkshire, pig, serum, subcutaneous, pig 56, Study Group 3, SC, ZA […], rHuPH20 10000 U/mL, 25 mL over 4 min, time 5 h, read-out: Zoledronic Acid Serum Concentration): 19.6 ng/mL
- concentration at 6 h (female, Yorkshire, pig, serum, subcutaneous, pig 56, Study Group 3, SC, ZA […], rHuPH20 10000 U/mL, 25 mL over 4 min, time 6 h, read-out: Zoledronic Acid Serum Concentration): 7.21 ng/mL
- concentration at 8 h (female, Yorkshire, pig, serum, subcutaneous, pig 56, Study Group 3, SC, ZA […], rHuPH20 10000 U/mL, 25 mL over 4 min, time 8 h, read-out: Zoledronic Acid Serum Concentration): 2.28 ng/mL
- concentration at 0.05 h [4]: 73.8 ng/mL
- concentration at 0.333 h [4]: 270 ng/mL
- concentration at 0.5 h [4]: 177 ng/mL
- concentration at 1 h [4]: 107 ng/mL
- concentration at 1 h [5]: 90.6 ng/mL
- concentration at 2 h [5]: 43.2 ng/mL
- concentration at 3 h [5]: 17 ng/mL
- concentration at 4 h [5]: 7.09 ng/mL
- concentration at 6 h (female, Yorkshire, pig, serum, subcutaneous, pig 68, Study Group 3, SC, ZA […], rHuPH20 10000 U/mL, 10 mL over 1.6 min, time 6 h, read-out: Zoledronic Acid Serum Concentration): 2.68 ng/mL
- concentration at […] (female, Yorkshire, pig, serum, subcutaneous, pig 68, Study Group 3, SC, ZA […], rHuPH20 10000 U/mL, 10 mL over 1.6 min, time […], read-out: Zoledronic Acid Serum Concentration): 50.5 ng/mL
- Zoledronic Acid Serum Concentration (pig 56, Study Group 3, SC, ZA […], rHuPH20 10000 U/mL, 25 mL over 4 min, time 10 h): BLQ^a (below assay limit of quantification (2.0 ng/mL))
- Zoledronic Acid Serum Concentration (pig 56, Study Group 3, SC, ZA […], rHuPH20 10000 U/mL, 25 mL over 4 min, time 24 h): BLQ (below assay limit of quantification (2.0 ng/mL))
- Zoledronic Acid Serum Concentration (pig 56, Study Group 3, SC, ZA […], rHuPH20 10000 U/mL, 25 mL over 4 min, time 48 h): BLQ (below assay limit of quantification (2.0 ng/mL))
- Zoledronic Acid Serum Concentration (pig 56, Study Group 3, SC, ZA […], rHuPH20 10000 U/mL, 25 mL over 4 min, time 72 h): BLQ (below assay limit of quantification (2.0 ng/mL))
- Zoledronic Acid Serum Concentration (pig 56, Study Group 3, SC, ZA […], rHuPH20 10000 U/mL, 25 mL over 4 min, time […]): BLQ (below assay limit of quantification (2.0 ng/mL))
- Zoledronic Acid Serum Concentration (pig 58, Study Group 3, SC, ZA […], rHuPH20 10000 U/mL, 50 mL over 8 min, time 8 h): BLQ (below assay limit of quantification (2.0 ng/mL))
- Zoledronic Acid Serum Concentration (pig 58, Study Group 3, SC, ZA […], rHuPH20 10000 U/mL, 50 mL over 8 min, time 10 h): BLQ (below assay limit of quantification (2.0 ng/mL))
- Zoledronic Acid Serum Concentration (pig 58, Study Group 3, SC, ZA […], rHuPH20 10000 U/mL, 50 mL over 8 min, time 24 h): BLQ (below assay limit of quantification (2.0 ng/mL))
- Zoledronic Acid Serum Concentration (pig 58, Study Group 3, SC, ZA […], rHuPH20 10000 U/mL, 50 mL over 8 min, time 48 h): BLQ (below assay limit of quantification (2.0 ng/mL))
- Zoledronic Acid Serum Concentration (pig 58, Study Group 3, SC, ZA […], rHuPH20 10000 U/mL, 50 mL over 8 min, time 72 h): BLQ (below assay limit of quantification (2.0 ng/mL))
- Zoledronic Acid Serum Concentration (pig 58, Study Group 3, SC, ZA […], rHuPH20 10000 U/mL, 50 mL over 8 min, time […]): BLQ (below assay limit of quantification (2.0 ng/mL))
- Zoledronic Acid Serum Concentration (pig 64, Study Group 3, SC, ZA […], rHuPH20 10000 U/mL, 100 mL over 16 min, time 8 h): BLQ (below assay limit of quantification (2.0 ng/mL))
- Zoledronic Acid Serum Concentration (pig 64, Study Group 3, SC, ZA […], rHuPH20 10000 U/mL, 100 mL over 16 min, time 10 h): BLQ (below assay limit of quantification (2.0 ng/mL))
- Zoledronic Acid Serum Concentration (pig 64, Study Group 3, SC, ZA […], rHuPH20 10000 U/mL, 100 mL over 16 min, time 24 h): BLQ (below assay limit of quantification (2.0 ng/mL))
- Zoledronic Acid Serum Concentration (pig 64, Study Group 3, SC, ZA […], rHuPH20 10000 U/mL, 100 mL over 16 min, time 48 h): BLQ (below assay limit of quantification (2.0 ng/mL))
- Zoledronic Acid Serum Concentration (pig 64, Study Group 3, SC, ZA […], rHuPH20 10000 U/mL, 100 mL over 16 min, time 72 h): BLQ (below assay limit of quantification (2.0 ng/mL))
- Zoledronic Acid Serum Concentration (pig 64, Study Group 3, SC, ZA […], rHuPH20 10000 U/mL, 100 mL over 16 min, time […]): BLQ (below assay limit of quantification (2.0 ng/mL))
- Zoledronic Acid Serum Concentration (pig 66, Study Group 3, SC, ZA […], rHuPH20 10000 U/mL, 100 mL over 16 min, time 6 h): BLQ (below assay limit of quantification (2.0 ng/mL))
- Zoledronic Acid Serum Concentration (pig 66, Study Group 3, SC, ZA […], rHuPH20 10000 U/mL, 100 mL over 16 min, time 8 h): BLQ (below assay limit of quantification (2.0 ng/mL))
- Zoledronic Acid Serum Concentration (pig 66, Study Group 3, SC, ZA […], rHuPH20 10000 U/mL, 100 mL over 16 min, time 10 h): BLQ (below assay limit of quantification (2.0 ng/mL))
- Zoledronic Acid Serum Concentration (pig 66, Study Group 3, SC, ZA […], rHuPH20 10000 U/mL, 100 mL over 16 min, time 24 h): BLQ (below assay limit of quantification (2.0 ng/mL))
- Zoledronic Acid Serum Concentration (pig 66, Study Group 3, SC, ZA […], rHuPH20 10000 U/mL, 100 mL over 16 min, time 48 h): BLQ (below assay limit of quantification (2.0 ng/mL))
- Zoledronic Acid Serum Concentration (pig 66, Study Group 3, SC, ZA […], rHuPH20 10000 U/mL, 100 mL over 16 min, time 72 h): BLQ (below assay limit of quantification (2.0 ng/mL))
- Zoledronic Acid Serum Concentration (pig 66, Study Group 3, SC, ZA […], rHuPH20 10000 U/mL, 100 mL over 16 min, time […]): BLQ (below assay limit of quantification (2.0 ng/mL))
- Zoledronic Acid Serum Concentration (pig 68, Study Group 3, SC, ZA […], rHuPH20 10000 U/mL, 10 mL over 1.6 min, time 8 h): BLQ (below assay limit of quantification (2.0 ng/mL))
- Zoledronic Acid Serum Concentration (pig 68, Study Group 3, SC, ZA […], rHuPH20 10000 U/mL, 10 mL over 1.6 min, time 10 h): BLQ (below assay limit of quantification (2.0 ng/mL))
- Zoledronic Acid Serum Concentration (pig 68, Study Group 3, SC, ZA […], rHuPH20 10000 U/mL, 10 mL over 1.6 min, time 24 h): BLQ (below assay limit of quantification (2.0 ng/mL))
- Zoledronic Acid Serum Concentration (pig 68, Study Group 3, SC, ZA […], rHuPH20 10000 U/mL, 10 mL over 1.6 min, time 48 h): BLQ (below assay limit of quantification (2.0 ng/mL))
- Zoledronic Acid Serum Concentration (pig 68, Study Group 3, SC, ZA […], rHuPH20 10000 U/mL, 10 mL over 1.6 min, time 72 h): BLQ (below assay limit of quantification (2.0 ng/mL))
- Zoledronic Acid Serum Concentration (pig 68, Study Group 3, SC, ZA […], rHuPH20 10000 U/mL, 10 mL over 1.6 min, time […]): BLQ (below assay limit of quantification (2.0 ng/mL))
- T½ λz (pig, ZA […] 20-min IV infusion, individual pigs 57, 61, 67): 46.8 min
